Target: recombinant human SYK (GST-hSYK fusion protein) (Homo sapiens, UniProt P43405)
Assay: biochemical
Settings: rhSYK Activity, Table 113A
Source text: Homogeneous Time-Resolved Fluorescence (HTRF) Assay for the Recombinant Human SYK Enzyme:

| SMILES | IC50 [nM] |
| --- | --- |
| COCc1cc(Nc2nccc(C(F)(F)F)n2)cc(-c2cnc([C@@]3(O)CC[C@H](C(=O)O)C(C)(C)C3)s2)c1 [Example 113A-62] | < 100 |
| COC(=O)C1CCC(O)(c2ncc(-c3cc(Cl)cc(Nc4nccc(C(F)(F)F)n4)c3)s2)CC1(C)C (stereo not shown) [Example 113A-63] | 100 to 1000 |
| Cc1cc(Nc2nccc(C)n2)cc(-c2cnc(C3(O)CCC(C(=O)O)C(C)C3C)s2)c1 (stereo not shown) [Example 113A-66] | < 100 |
| CCOC(=O)C1CCC(O)(c2ncc(-c3cc(C)cc(Nc4nccc(C)n4)c3)s2)C(C)C1C (stereo not shown) [Example 113A-70] | < 100 |
| Cc1cc(Nc2nccc(C)n2)cc(-c2cnc(C3(O)CCC(C(=O)O)CC3C)s2)c1 (stereo not shown) [Example 113A-80] | < 100 |
| CCOC(=O)C1CCC(O)(c2ncc(-c3cc(C)cc(Nc4nccc(C)n4)c3)s2)C(C)C1 (stereo not shown) [Example 113A-87] | < 100 |
| Cc1cc(Nc2nccc(C(F)(F)F)n2)cc(-c2cnc(C3(O)CCC(C(=O)O)CC3C)s2)c1 (stereo not shown) [Example 113A-88] | < 100 |
| CCOC(=O)C1CCC(O)(c2ncc(-c3cc(C)cc(Nc4nccc(C(F)(F)F)n4)c3)s2)C(C)C1 (stereo not shown) [Example 113A-89] | < 100 |
| Cc1cc(Nc2nccc(C)n2)cc(-c2cnc(C3(O)CCC(C(=O)O)CC3O)s2)c1 (stereo not shown) [Example 113A-90] | < 100 |
| Cc1cc(Nc2nccc(C)n2)cc(-c2cnc(C3(O)CCC(C(=O)O)CC3(C)C)s2)c1 (stereo not shown) [Example 113A-92] | < 100 |

The remaining lines, values ahead:

| IC50 [nM] | SMILES |
| --- | --- |
| < 100 | Cc1cc(Nc2nccc(C3CC3)n2)cc(-c2cnc([C@]3(O)CC[C@@H](C(=O)O)[C@@H](C)C3)s2)c1 [Example 113A-20] |
| < 100 | Cc1cc(Nc2nccc(C3CC3)n2)cc(-c2cnc([C@@]3(O)CC[C@H](C(=O)O)[C@H](C)C3)s2)c1 [Example 113A-21] |
| < 100 | Cc1cc(Nc2nccc(C3CC3)n2)cc(-c2cnc(C3(O)CCC(C(=O)O)C(C)C3)s2)c1 (stereo not shown) [Example 113A-22] |
| < 100 | Cc1ccnc(Nc2cc(-c3cnc(C4(O)CCC(C(=O)O)C(C)C4)s3)cc(C3CC3)c2)n1 (stereo not shown) [Example 113A-23] |
| < 100 | Cc1cc(Nc2nccc(C(C)C)n2)cc(-c2cnc([C@@]3(O)CC[C@H](C(=O)O)[C@H](C)C3)s2)c1 [Example 113A-25] |
| < 100 | Cc1cc(Nc2nccc(C(C)C)n2)cc(-c2cnc([C@]3(O)CC[C@@H](C(=O)O)[C@@H](C)C3)s2)c1 [Example 113A-26] |
| < 100 | Cc1cc(Nc2ncc(Cl)c(C)n2)cc(-c2cnc([C@@]3(O)CC[C@H](C(=O)O)[C@H](C)C3)s2)c1 [Example 113A-27] |
| < 100 | Cc1cc(Nc2ncc(Cl)c(C)n2)cc(-c2cnc([C@]3(O)CC[C@@H](C(=O)O)[C@@H](C)C3)s2)c1 [Example 113A-28] |
| < 100 | CCOC(=O)C1CCC(O)(c2ncc(-c3cc(C)cc(Nc4nccc(CC)n4)c3)s2)CC1C (stereo not shown) [Example 113A-31] |
| < 100 | Cc1cc(Nc2ncc(F)c(C3CC3)n2)cc(-c2cnc([C@@]3(O)CC[C@H](C(=O)O)[C@H](C)C3)s2)c1 [Example 113A-33] |
| < 100 | Cc1cc(Nc2ncc(F)c(C3CC3)n2)cc(-c2cnc([C@]3(O)CC[C@@H](C(=O)O)[C@@H](C)C3)s2)c1 [Example 113A-34] |
| < 100 | Cc1cc(Nc2nccc(OC(C)C)n2)cc(-c2cnc([C@]3(O)CC[C@@H](C(=O)O)[C@@H](C)C3)s2)c1 [Example 113A-35] |
| < 100 | COc1nc(Nc2cc(C)cc(-c3cnc([C@@]4(O)CC[C@H](C(=O)O)[C@H](C)C4)s3)c2)ncc1Cl [Example 113A-36] |
| < 100 | COc1nc(Nc2cc(C)cc(-c3cnc([C@]4(O)CC[C@@H](C(=O)O)[C@@H](C)C4)s3)c2)ncc1Cl [Example 113A-37] |
| < 100 | COCCOc1ccnc(Nc2cc(C)cc(-c3cnc(C4(O)CCC(C(=O)O)C(C)C4)s3)c2)n1 (stereo not shown) [Example 113A-38] |
| < 100 | COCCCOc1ccnc(Nc2cc(C)cc(-c3cnc(C4(O)CCC(C(=O)O)C(C)C4)s3)c2)n1 (stereo not shown) [Example 113A-40] |
| < 100 | COCc1cc(Nc2nccc(C(F)(F)F)n2)cc(-c2cnc(C3(O)CCC(C(=O)O)C(C)C3)s2)c1 (stereo not shown) [Example 113A-42] |
| < 100 | CCOC(=O)C1CCC(O)(c2ncc(-c3cc(C)cc(Nc4nccc(OCCOC)n4)c3)s2)CC1C (stereo not shown) [Example 113A-43] |
| < 100 | CCOC(=O)C1CCC(O)(c2ncc(-c3cc(C)cc(Nc4nccc(OCCCOC)n4)c3)s2)CC1C (stereo not shown) [Example 113A-47] |
| < 100 | CCc1ccnc(Nc2cc(C)cc(-c3cnc([C@@]4(O)CC[C@H](C(=O)O)C(C)(C)C4)s3)c2)n1 [Example 113A-49] |
| < 100 | COC(=O)[C@H]1CC[C@](O)(c2ncc(-c3cc(C)cc(Nc4nccc(C#N)n4)c3)s2)CC1(C)C [Example 113A-50] |
| < 100 | Cc1cc(Nc2nccc(C3CC3)n2)cc(-c2cnc(C3(O)CCC(C(=O)O)C(C)(C)C3)s2)c1 (stereo not shown) [Example 113A-51] |
| < 100 | Cc1cc(Nc2nccc(C(C)C)n2)cc(-c2cnc(C3(O)CCC(C(=O)O)C(C)(C)C3)s2)c1 (stereo not shown) [Example 113A-52] |
| < 100 | CCc1ccnc(Nc2cc(C)cc(-c3cnc([C@@]4(O)CC[C@H](C(=O)OC)C(C)(C)C4)s3)c2)n1 [Example 113A-53] |
| < 100 | COC(=O)[C@H]1CC[C@](O)(c2ncc(-c3cc(C)cc(Nc4nccc(OC)n4)c3)s2)CC1(C)C [Example 113A-54] |
| < 100 | COC(=O)[C@@H]1CC[C@@](O)(c2ncc(-c3cc(C)cc(Nc4nccc(OC)n4)c3)s2)CC1(C)C [Example 113A-55] |
| < 100 | COC(=O)C1CCC(O)(c2ncc(-c3cc(C)cc(Nc4nccc(C5CC5)n4)c3)s2)CC1(C)C (stereo not shown) [Example 113A-56] |
| < 100 | Cc1cc(Nc2ncc(F)c(C3CC3)n2)cc(-c2cnc(C3(O)CCC(C(=O)O)C(C)(C)C3)s2)c1 (stereo not shown) [Example 113A-57] |
| < 100 | Cc1cc(Nc2ncc(F)c(C3CC3)n2)cc(-c2cnc([C@@]3(O)CC[C@H](C(=O)O)C(C)(C)C3)s2)c1 [Example 113A-58] |

Same assay, conditions: rhSYK Activity, Table 113B

| IC50 [nM] | SMILES |
| --- | --- |
| < 100 | Cc1cc(Nc2nccc(C)n2)cc(-c2cnc(C3(O)CC(C)C(C(=O)O)CC3C)s2)c1 (stereo not shown) [Example 113B-3] |
| < 100 | CCOC(=O)C1CC(C)C(O)(c2ncc(-c3cc(C)cc(Nc4nccc(C)n4)c3)s2)CC1C (stereo not shown) [Example 113B-7] |
| < 100 | CCOC(=O)C1CC(C)C(O)(c2ncc(-c3cc(C)cc(Nc4nccc(C)n4)c3)s2)CC1C (stereo not shown) [Example 113B-8] |
| < 100 | CCOC(=O)C1CC(C)C(O)(c2ncc(-c3cc(C)cc(Nc4nccc(C)n4)c3)s2)CC1C (stereo not shown) [Example 113B-9] |
| < 100 | CCOC(=O)C1CC(C)C(O)(c2ncc(-c3cc(C)cc(Nc4nccc(C)n4)c3)s2)CC1C (stereo not shown) [Example 113B-10] |
| 100 to 1000 | CCOC(=O)C1CC(C)C(O)(c2ncc(-c3cc(C)cc(Nc4nccc(C)n4)c3)s2)CC1C (stereo not shown) [Example 113B-11] |
| < 100 | Cc1cc(Nc2nccc(C(F)(F)F)n2)cc(-c2cnc(C3(O)CC(C)C(C(=O)O)CC3C)s2)c1 (stereo not shown) [Example 113B-12] |
| < 100 | CCOC(=O)C1CC(C)C(O)(c2ncc(-c3cc(C)cc(Nc4nccc(C(F)(F)F)n4)c3)s2)CC1C (stereo not shown) [Example 113B-17] |
| < 100 | CCOC(=O)C1CC(C)C(O)(c2ncc(-c3cc(C)cc(Nc4nccc(C(F)(F)F)n4)c3)s2)CC1C (stereo not shown) [Example 113B-18] |
| < 100 | CCOC(=O)C1CC(C)C(O)(c2ncc(-c3cc(C)cc(Nc4nccc(C(F)(F)F)n4)c3)s2)CC1C (stereo not shown) [Example 113B-19] |

Source: US8551984B2, “Aminopyrimidines as SYK inhibitors” (Merck Sharp & Dohme Corp., priority 2009, dated 2013)
